The source made the active and inactive calls.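 The calls were made as follows: active = maximal inhibition of USP17 at or above 30% in the confirmation dose-response, a value not among the printed readouts; inactive = the rest.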
Target: Ubiquitin carboxyl-terminal hydrolase 17-like protein 5 (Homo sapiens) (UniProt A8MUK1)
Assay: ubiquitin-specific protease 17 DUB inhibitors, concentration-effect assay, cell-free, verification of initial screening actives (AID 1645864)
Settings: purified USP17, ubiquitin-rhodamine cleavage fluorescence, 3 h

Chain of Ubiquitin carboxyl-terminal hydrolase 17-like protein 5 (Homo sapiens) (A8MUK1 whole entry, looked up): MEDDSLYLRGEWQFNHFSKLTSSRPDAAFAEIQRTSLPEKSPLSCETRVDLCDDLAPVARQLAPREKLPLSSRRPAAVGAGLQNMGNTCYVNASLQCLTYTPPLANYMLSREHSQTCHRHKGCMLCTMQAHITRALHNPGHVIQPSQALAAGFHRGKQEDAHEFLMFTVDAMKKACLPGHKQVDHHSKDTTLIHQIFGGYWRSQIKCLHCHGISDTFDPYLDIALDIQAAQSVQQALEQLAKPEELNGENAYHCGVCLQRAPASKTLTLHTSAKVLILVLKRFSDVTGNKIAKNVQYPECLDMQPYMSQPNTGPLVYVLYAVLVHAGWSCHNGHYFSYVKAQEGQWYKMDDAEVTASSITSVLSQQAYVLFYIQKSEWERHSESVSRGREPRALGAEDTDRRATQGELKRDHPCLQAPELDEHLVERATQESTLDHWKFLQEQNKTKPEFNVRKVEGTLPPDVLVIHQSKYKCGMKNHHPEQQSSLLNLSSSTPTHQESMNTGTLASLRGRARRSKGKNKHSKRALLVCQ

Compound	IC50
CCN(CC)c1cc(C)c2cc(NC(=O)c3ccncc3)ccc2n1	> 50 µM (inactive)
Cc1ccccc1NC(=O)CNc1nc(Nc2ccccc2)nc(Nc2ccccc2)n1	21.7 µM
Nc1c(-c2ccc(Cl)cc2)cnc2cc(-c3ccc(Cl)c(Cl)c3)nn12	3.37 µM
O=C(CC1C(=O)N(Cc2ccccc2)c2nc3ccccc3n21)NCCc1ccccc1 (stereo unspecified)	18.7 µM
Cc1ccc(-c2cnc(C3CC3)o2)cc1S(=O)(=O)Nc1ccc(F)c(Cl)c1	38.1 µM
O=C1C=CC(O)C2C1CC13SSC4(CC5C(=O)C=CC(O)C5N4C1=O)C(=O)N23 (stereo unspecified)	> 50 µM (inactive)
COc1ccc(-c2cc(C(C)=O)c(C)n2CCC(=O)Nc2ccc(OC)cc2OC)cc1	40.7 µM
O=c1c2cnc(N3CCCCC3)nc2ccn1CCc1ccccc1	1.87 µM
O=C(NC1CCN(Cc2ccccc2)CC1)c1[nH]nc2c1COc1ccccc1-2	> 50 µM (inactive)
Cc1ccc(Cn2c(=O)c3ccccc3n3c(CCC(=O)N4CCN(c5ccccn5)CC4)nnc23)cc1	11.8 µM
CCC1=C(c2ccc(C)cc2)S(=O)(=O)NC1=NCC(=O)NC(C)c1ccccc1 (stereo unspecified)	25.2 µM
COc1ccc(-c2cc(C(F)F)n3ncc(C(=O)Nc4ccc5c(c4)OCCO5)c3n2)cc1	> 50 µM (inactive)
Cc1ccc2c(c1)-c1c(c(C(=O)N3CCN(c4ccccc4)CC3)nn1C)CS2	> 50 µM (inactive)
O=C(Cn1c(CSc2ccccc2)nc2ccccc21)Nc1ccccc1F	39.6 µM
Cc1sc2ccn(C)c(=O)c2c1C(=O)NC1CCCC1	3.48 µM
Cc1cc(C)c2cc3c(nc2c1)OC(=O)N(Cc1ccco1)C3	30.9 µM
Cc1ccc2cc(CNc3ccccc3)c(=O)n(CC(=O)Nc3ccccc3C)c2c1	9.1 µM
O=C(Cn1c(=O)c2sccc2n(Cc2ccc([N+](=O)[O-])cc2)c1=O)NCCc1ccccc1	26.8 µM
O=C(Cc1ccccc1F)Nc1nc(-c2ccco2)c(-c2ccco2)s1	> 50 µM (inactive)
NS(=O)(=O)c1cccc(NS(=O)(=O)c2ccc(/C=C/C(=O)OCC(=O)c3ccc(Br)cc3)cc2)c1	> 50 µM (inactive)
CC[C@H](C)[C@H](NC(=O)[C@H]([C@@H](C)CC)N(C)C(C)=O)C(=O)N[C@H](C(=O)N[C@@H](CC(C)C)C(=O)C1(C)CO1)[C@@H](C)O (stereo partly specified)	> 50 µM (inactive)
CCn1cnc2c1c(=O)n(CC(=O)NCc1ccccc1Cl)c(=O)n2Cc1ccccc1	> 50 µM (inactive)
CN(Cc1ccccc1)S(=O)(=O)c1ccc(S(=O)(=O)N2CCN(C(=O)c3cccnc3)CC2)cc1	44 µM
O=C(O)CCCCCN1C(=O)CC(c2ccc(Cl)cc2)CC1=O	18.2 µM

Compound	IC50
CCc1ccc(NC(=O)COC(=O)c2n[nH]c3ccccc23)cc1	3.42 µM
COc1ccc(S(=O)(=O)N2CCc3ccccc32)cc1C(=O)Nc1ccc2[nH]c(=O)[nH]c2c1	4.48 µM
O=C(CNC(=O)c1cccc(F)c1)Nc1nc2ccccc2[nH]1	19.2 µM
O=C1NC(=O)/C(=C/c2ccc(OC(=O)c3ccc(Cl)cc3Cl)cc2)N1	13.7 µM
CC(OC(=O)c1c2c(nc3ccccc13)CCCCC2)C(=O)Nc1ccc2ccccc2c1 (stereo unspecified)	3.81 µM
Cc1cc2nc(Oc3cccc(Cl)c3)c3ccccc3n2n1	1.91 µM
COc1ccc(NC(=O)COc2ccc3ccc(=O)oc3c2)cc1	33.5 µM
COc1ccc(NC(=O)c2ccc(Nc3nnc(C)c4ccccc34)cc2)cc1	> 50 µM (inactive)
O=C(COc1ccc(S(=O)(=O)N2CCOCC2)cc1)N1CCC(Cc2ccccc2)CC1	> 50 µM (inactive)
CCN(CC)c1nc(F)c2c(c1F)S(=O)(=O)CCN2Cc1ccccc1	> 50 µM (inactive)
FC(F)(F)c1ccccc1CCN1CCc2nc3ccc(Cl)cc3cc2C1	> 50 µM (inactive)
CCOC(=O)c1cnc(C(F)(F)F)nc1Sc1n[nH]c(-c2cccs2)n1	> 50 µM (inactive)
COc1ccc(NC(=O)Cn2c(CSc3ccc(C)cc3)nc3ccccc32)cc1	36 µM
O=C(CSc1nnc(CNC(=O)c2ccccc2F)o1)Nc1ccc(OC(F)(F)F)cc1	33 µM
CCn1c(Cn2cccn2)nc2cc(NC(=O)c3ccc(F)cc3)ccc21	> 50 µM (inactive)
COc1ccc(C2CC(c3ccc(C)cc3)N(C(=O)C3CC3)c3ncnn32)cc1 (stereo unspecified)	> 50 µM (inactive)
NC(=O)c1nnn(-c2ccc(NC(=O)c3ccc(F)c(F)c3)cc2)n1	10.6 µM
Cc1ccc(NC(=O)c2ccn(COc3ccc(F)cc3)n2)nc1	32.1 µM
CN(C)Cc1ccc(C(=O)Nc2ccc(-c3nccs3)cc2)cc1	> 50 µM (inactive)
CCOc1ccc(NC(=O)Cn2cnc(S(=O)(=O)N3CCc4ccccc43)c2)cc1	23.6 µM
O=C(CSc1nc2ccccc2n1S(=O)(=O)c1ccc(Br)cc1)Nc1ccc([N+](=O)[O-])cc1Cl	> 50 µM (inactive)
COc1ccccc1-c1nc2c3c(C)c(C)n(Cc4cccnc4)c3ncn2n1	> 50 µM (inactive)
COc1ccc(C)cc1NC(=O)C(NS(=O)(=O)c1ccc2c(c1)CCN2C(C)=O)C(C)C (stereo unspecified)	> 50 µM (inactive)
COc1ccccc1NC(=O)Nc1ccc(NC(=O)c2ccccc2O)cc1	47.5 µM

Compound	IC50
CN(Cc1ccccc1)S(=O)(=O)c1ccc2[nH]cc(C(=O)NCc3cccs3)c(=O)c2c1	0.749 µM
COc1cccc(NC(=O)C2CCC(CNS(=O)(=O)c3ccc4c(c3)C(C)(C)C(=O)N4C)CC2)c1 (stereo unspecified)	> 50 µM (inactive)
Cc1ccc(Cn2c(=O)n(CCC(=O)NCCc3ccccc3)c(=O)c3ccccc32)cc1	11.7 µM
COc1ccc(N2CCN(Cc3nnnn3Cc3ccc4c(c3)OCO4)CC2)cc1	> 50 µM (inactive)
Cc1sc(NC(=O)CNc2ccccc2)nc1-c1ccc2c(c1)CCN2C(=O)C(C)C	> 50 µM (inactive)
c1ccc(-c2ccc(NCc3ccc4c(c3)OCO4)nn2)cc1	7.45 µM
Cc1ccc2[nH]c3c(=O)n(CC4CCCO4)cnc3c2c1 (stereo unspecified)	21.5 µM
COc1ccc(-c2cc3c(=O)n(CC(=O)Nc4ccccc4Cl)ccn3n2)cc1	5.49 µM
Cc1cc(-c2ccnc3c(C#N)cnn23)c(C)s1	28.6 µM
COc1cccc2c1C(=O)c1ccc3c(c1C2=O)C(=O)CC(C)(O)C3 (stereo unspecified)	36.4 µM
COc1cc2c(cc1OC)-c1cc(Nc3ccc(Br)cc3)nc(=O)n1CC2	1.65 µM
O=C(NCc1ccc2c(c1)OCO2)c1cc2c(s1)-c1ccccc1OC2	3.99 µM
O=C(Nc1ccc(N2CCOCC2)cc1)c1ccc(-c2ccc(N3CCCC3)nn2)cc1	> 50 µM (inactive)
N#Cc1ccc(Cn2nnc(-c3cccc(Cl)c3)n2)cc1	> 50 µM (inactive)
CCCCNC(=O)C1Sc2nnc(-c3ccccc3)n2NC1c1ccccc1 (stereo unspecified)	23.7 µM
Cc1ccc(-c2ccc(N3CCOCC3)nn2)cc1S(=O)(=O)N1CCOCC1	> 50 µM (inactive)
O=C1CC(O)C(O)c2cccc(O)c21 (stereo unspecified)	9.86 µM
O=C(Cn1ncc2c(N3CCCCCC3)ncnc21)NCc1ccccc1	> 50 µM (inactive)
O=C(COc1ccc(Cl)cc1)NCc1nnc(SCC(=O)NCc2ccc3c(c2)OCO3)o1	28.2 µM
CCCCNC(=O)c1cc2cccnc2n(Cc2ccccc2)c1=O	> 50 µM (inactive)
CC(C)c1nc2sc3c(N(CCO)CCO)ncnc3c2c2c1COC(C)(C)C2	> 50 µM (inactive)
CCC(C)NC(=O)Cn1c(=O)n(-c2ccccc2)c(=O)c2ccc(C(=O)NCc3ccco3)cc21 (stereo unspecified)	45 µM
COc1cc(C2SCC(=O)Nc3c2c(-c2ccccc2)nn3-c2ccccc2)cc(OC)c1OC (stereo unspecified)	> 50 µM (inactive)
